Among the test systems are A498; IGROV-1; HOP-62; SNB-19; SK-MEL-28; HCT-116; SK-MEL-2; OVCAR-8; SK-MEL-5; NCI-H23; NCI-H460; Malme-3M; HCT-15; EKVX; SF-295; M14; Hs-578T; SK-OV-3.
Test in all cases: NCI anticancer screen, dose series, 48 h

Each structure is given as a SMILES string.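 Each compound was tested at five concentrations against cells in 96-well plates for 48 hours. Abbreviation: GI50, concentration required for 50% inhibition of growth.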 Calls of active or inactive are those of the source. Rule as the data show it: active = GI50 up to about 1.1 µM and inactive = higher. Bounds are passed on as bounds.

Consider `CC(CO)(CO)Nc1ncnc2ccccc12`, for which the GI50 in the experiment on A498, in the experiment on IGROV-1, in the experiment with HOP-62, with SNB-19, with SK-MEL-28 and in the experiment with HCT-116 was > 100 µM (inactive) in each case. In addition, the GI50 in the experiment with SK-MEL-2 was > 100 µM (inactive); in the experiment with OVCAR-8 it was > 100 µM (inactive); in the experiment with SK-MEL-5, 50.1 µM (inactive); in the experiment with NCI-H23, > 100 µM (inactive); in the experiment on NCI-H460, > 100 µM (inactive); in the experiment on Malme-3M, > 100 µM (inactive). In addition, the GI50 was over 100 µM in the experiment on HCT-15; 66.8 µM (inactive) in the experiment on EKVX; > 100 µM (inactive) with SF-295; > 100 µM (inactive) in the experiment on M14; > 100 µM (inactive) in the experiment with Hs-578T.
Regarding `NC(=O)C1CCCN1C(=O)C(Cc1c[nH]cn1)NC(=O)C1CCCC1` (stereo unspecified), the GI50 with A498 was 23.4 µM (inactive); in the experiment with SK-OV-3, > 100 µM (inactive); with IGROV-1, > 100 µM (inactive); in the experiment on HOP-62 it was > 100 µM (inactive); in the experiment with SNB-19 it was > 100 µM (inactive); in the experiment with SK-MEL-28 it was > 100 µM (inactive). The GI50 in the experiment on HCT-116, in the experiment with OVCAR-8, in the experiment with SK-MEL-5, in the experiment on NCI-H23, in the experiment with NCI-H460 and in the experiment on Malme-3M was > 100 µM (inactive) throughout. The GI50 in the experiment with HCT-15 is over 100 µM; with EKVX it was > 100 µM (inactive); in the experiment on SF-295, > 100 µM (inactive); with M14 it was > 100 µM (inactive); in the experiment with Hs-578T, > 100 µM (inactive).
Take `O=C1OC(C2Cc3ccc4ccccc4c3C2=O)c2ccccc21` (stereo unspecified): the GI50 in the experiment on A498 is > 100 µM (inactive); in the experiment with IGROV-1, 39.4 µM (inactive); in the experiment with SNB-19, 23.2 µM (inactive); in the experiment with SK-MEL-28, 55.5 µM (inactive); in the experiment with HCT-116, 41.4 µM (inactive); in the experiment with SK-MEL-2, 47.8 µM (inactive). The GI50 in the experiment with OVCAR-8 is 35.6 µM (inactive); in the experiment with SK-MEL-5 it was 22 µM (inactive); with NCI-H460, 49.7 µM (inactive); in the experiment on Malme-3M, 50.1 µM (inactive); in the experiment on HCT-15, 34.8 µM; in the experiment with EKVX, 29.6 µM (inactive). In addition, the GI50 is 32.4 µM (inactive) in the experiment with SF-295, 92.9 µM (inactive) with M14 and 31.6 µM (inactive) in the experiment with Hs-578T.
As for `O=C(OCc1c(-c2ccccc2)nn(-c2ccccc2)c1COC(=O)Oc1ccccc1)Oc1ccccc1`, the GI50 with A498, in the experiment on SK-OV-3, in the experiment with IGROV-1, in the experiment with HOP-62, in the experiment with SNB-19 and in the experiment with SK-MEL-28 was > 100 µM (inactive) throughout. The GI50 in the experiment with HCT-116 was > 100 µM (inactive); in the experiment with OVCAR-8, > 100 µM (inactive); in the experiment on SK-MEL-5, 31.8 µM (inactive); with NCI-H23, > 100 µM (inactive); in the experiment on NCI-H460, > 100 µM (inactive); in the experiment on Malme-3M, > 100 µM (inactive). The GI50 was over 100 µM in the experiment with HCT-15; > 100 µM (inactive) in the experiment with EKVX; > 100 µM (inactive) in the experiment with SF-295; > 100 µM (inactive) in the experiment with M14; > 100 µM (inactive) in the experiment with Hs-578T.
Regarding `COc1cc([C@@H]2c3cc4c(cc3[C@@H](/N=C/c3ccc(C(=O)O[C@@H](C(=O)O[C@H]5C[C@@]6(O)[C@@H](OC(=O)c7ccccc7)[C@@H]7[C@]8(OC(C)=O)CO[C@@H]8C[C@H](O)[C@@]7(C)C(=O)[C@H](OC(C)=O)C(=C5C)C6(C)C)[C@@H](NC(=O)c5ccccc5)c5ccccc5)cc3)[C@H]3COC(=O)[C@H]23)OCO4)cc(OC)c1O`, the GI50 in the experiment on A498 is 0.133 µM (active); with SK-OV-3, 0.0785 µM (active); in the experiment with IGROV-1 it was 0.19 µM (active); with HOP-62, 0.246 µM (active); with SNB-19, 1.22 µM (inactive); with SK-MEL-28, > 37.1 µM (inactive). Further, the GI50 in the experiment with HCT-116 was 0.027 µM (active); with SK-MEL-2, 0.0335 µM (active); with OVCAR-8, 0.356 µM (active); in the experiment on SK-MEL-5 it was 0.0154 µM (active); in the experiment on NCI-H23, 0.869 µM (active); in the experiment on NCI-H460, 0.00929 µM (active). Moreover, the GI50 with HCT-15 was 13.3 µM; in the experiment with EKVX, 5.93 µM (inactive); in the experiment on SF-295 it was 0.171 µM (active); with M14, 0.022 µM (active); in the experiment with Hs-578T, 0.0459 µM (active).
As to `C=CCOCn1cc(F)c(=O)[nH]c1=O`, the GI50 in the experiment on A498, in the experiment with SK-OV-3, with IGROV-1, with HOP-62, in the experiment on SNB-19 and with SK-MEL-28 was > 100 µM (inactive) throughout. Moreover, the GI50 with HCT-116, in the experiment with OVCAR-8, with SK-MEL-5, in the experiment on NCI-H23, with NCI-H460 and in the experiment on Malme-3M was > 100 µM (inactive) in each case. Also, the GI50 with HCT-15 was over 100 µM; in the experiment on EKVX, > 100 µM (inactive); in the experiment on SF-295, > 100 µM (inactive); with M14, > 100 µM (inactive); with Hs-578T, > 100 µM (inactive).
Take `CSc1nc(C)c2c(n1)SCC2`: the GI50 in the experiment on A498, with SK-OV-3, with IGROV-1, with HOP-62, in the experiment on SNB-19 and with SK-MEL-28 was > 10 µM (inactive) throughout. Further, the GI50 in the experiment with HCT-116, in the experiment on OVCAR-8, with SK-MEL-5, in the experiment with NCI-H23, in the experiment with NCI-H460 and with Malme-3M was > 10 µM (inactive) each time. In addition, the GI50 is over 10 µM in the experiment on HCT-15; > 10 µM (inactive) in the experiment with EKVX; > 10 µM (inactive) in the experiment with SF-295; > 10 µM (inactive) in the experiment on M14; 2.52 µM (inactive) with Hs-578T.
`Cc1cc(S(=O)(=O)Nc2nnc3ccccn23)c(S)cc1Cl`: the GI50 in the experiment with A498 is 25 µM (inactive); with IGROV-1, > 100 µM (inactive); in the experiment with HOP-62, 56.6 µM (inactive); in the experiment with SNB-19, > 100 µM (inactive); in the experiment with SK-MEL-28, > 100 µM (inactive); with HCT-116 it was > 100 µM (inactive). The GI50 in the experiment with SK-MEL-2 was 79.4 µM (inactive); in the experiment on OVCAR-8, > 100 µM (inactive); in the experiment on SK-MEL-5, > 100 µM (inactive); with NCI-H23, > 100 µM (inactive); in the experiment with NCI-H460, 40.1 µM (inactive); in the experiment with Malme-3M it was > 100 µM (inactive). In addition, the GI50 in the experiment on HCT-15 is over 100 µM; in the experiment on EKVX, > 100 µM (inactive); in the experiment with SF-295, 25.9 µM (inactive); with M14, > 100 µM (inactive); in the experiment on Hs-578T, > 100 µM (inactive).
For `CCOC(=O)C1(C/C=C\CBr)CCCCCCC1=O` (stereo unspecified), the GI50 with A498, in the experiment on SK-OV-3, in the experiment on IGROV-1, in the experiment on HOP-62, with SNB-19 and in the experiment with SK-MEL-28 was > 100 µM (inactive) throughout. In addition, the GI50 in the experiment on HCT-116, with SK-MEL-2, in the experiment on OVCAR-8, in the experiment on SK-MEL-5, with NCI-H23 and with Malme-3M was > 100 µM (inactive) in each case. Also, the GI50 in the experiment with HCT-15 is over 100 µM; in the experiment with EKVX it was > 100 µM (inactive); in the experiment on SF-295, > 100 µM (inactive); in the experiment on M14, > 100 µM (inactive); in the experiment with Hs-578T, > 100 µM (inactive).
With `COC1/C=C/C(C)C(OC)CC(O)/C=C/C(C)C(C(C)C(OC)C(C)CCC(=O)C(C)C(C/C=C/N(C)C=O)OC)OC(=O)/C=C/C=C(\C)CC(OC)C(OC)C2=CC(=O)O[C@@H](C(C)C(OC)C1)[C@H]2O` (stereo partly specified), the GI50 in the experiment on A498 is 0.0289 µM (active); in the experiment on SK-OV-3 it was 0.0436 µM (active); with IGROV-1, 0.0341 µM (active); in the experiment on HOP-62 it was 0.0324 µM (active); with SNB-19, 0.0519 µM (active); with SK-MEL-28, 0.0446 µM (active). For the same compound, the GI50 is 0.00847 µM (active) in the experiment with HCT-116; 0.0514 µM (active) in the experiment with OVCAR-8; 0.0387 µM (active) in the experiment on SK-MEL-5; 0.0512 µM (active) with NCI-H23; 0.0172 µM (active) with NCI-H460; 0.04 µM (active) in the experiment on Malme-3M. In addition, the GI50 was 0.015 µM in the experiment with HCT-15; 0.08 µM (active) with EKVX; 0.0345 µM (active) with SF-295; 0.0384 µM (active) in the experiment with M14; 0.0307 µM (active) in the experiment on Hs-578T.
For `CO/C(=N\N=C(/C)C(F)(F)F)c1ccncc1`, the GI50 with A498 was 15.5 µM (inactive); in the experiment with SK-OV-3 it was > 100 µM (inactive); in the experiment on IGROV-1, > 100 µM (inactive); in the experiment on HOP-62, > 100 µM (inactive); in the experiment on SNB-19, > 100 µM (inactive); in the experiment on SK-MEL-28 it was > 100 µM (inactive). Further, the GI50 in the experiment on HCT-116, in the experiment on SK-MEL-2, in the experiment on OVCAR-8, in the experiment on SK-MEL-5, with NCI-H23 and in the experiment on NCI-H460 was > 100 µM (inactive) throughout. The GI50 was > 100 µM (inactive) in the experiment with Malme-3M, over 100 µM in the experiment on HCT-15, > 100 µM (inactive) in the experiment with M14 and > 100 µM (inactive) with Hs-578T.
For the compound `O=Cc1ccc(-c2cccc([N+](=O)[O-])c2)s1`, the GI50 in the experiment with A498 is 16.9 µM (inactive); with SK-OV-3, > 100 µM (inactive); in the experiment with IGROV-1, > 100 µM (inactive); in the experiment on HOP-62, > 100 µM (inactive); in the experiment with SNB-19, > 100 µM (inactive); in the experiment on SK-MEL-28, > 100 µM (inactive). In addition, the GI50 in the experiment with HCT-116 is > 100 µM (inactive); in the experiment on SK-MEL-2, > 100 µM (inactive); in the experiment on OVCAR-8, 80.9 µM (inactive); in the experiment on SK-MEL-5, > 100 µM (inactive); in the experiment on NCI-H23, > 100 µM (inactive); in the experiment with NCI-H460 it was > 100 µM (inactive). Besides, the GI50 in the experiment with HCT-15 is over 100 µM; in the experiment on EKVX it was 71.4 µM (inactive); with SF-295 it was > 100 µM (inactive); in the experiment on M14, > 100 µM (inactive); in the experiment on Hs-578T, 53.6 µM (inactive).

The record behind these values is ChEMBL document CHEMBL1201862, “PubChem BioAssay data set” (2004).
